Assays:
sng1Δ mutant [1] = assay: Shake-flask fermentation under vanillin stress (OD600 growth); assay type: cell-based, Saccharomyces cerevisiae
Procedure: (§1) A single colony of the sng1Δ mutant was picked, transferred to 1-2 mL of a SC medium and cultured at 30° C. and 200 rpm for about 24 h. The cell suspension was transferred to 20 mL of fresh medium at an initial OD600 of 0.2 and cultured at 30° C. and 200 rpm overnight to the mid log phase for secondary activation. Then the cell culture, at an initial OD600 of 0.2, was transferred to 40 mL of a SC medium containing 6 mmol/L of vanillin and cultured at 30° C. and 200 rpm under shaking, where the OD600 was regularly measured.
(§2) The maximum specific growth rate was obtained by calculating a […] regression slope of ln(OD600) versus time in the logarithmic growth phase.

Saccharomyces cerevisiae = details: 0.9 g/L vanillin; extended from 2 hours without vanillin; cited from earlier work
sng1Δ mutant [2] = assay: Growth on YEPD plate containing vanillin (spot dilution test); assay type: cell-based, Saccharomyces cerevisiae; details: YEPD plate with 6 mmol/L of vanillin, 30° C., 1-3 days, sng1Δ mutant vs control strain
Procedure: The sng1Δ mutant obtained above was cultured on a YEPD plate containing 6 mmol/L of vanillin to observe its growth status. Specifically, the sng1Δ mutant was inoculated to 1-2 mL of a liquid YEPD medium and cultured at 30° C. overnight to logarithmic growth phase. Then the mutant cells were transferred to 5 mL of fresh medium at an initial OD600 of 0.2, cultured overnight and centrifuged. The cells were collected, washed with 1 mL of sterile water three times and centrifuged at 8,000 r/min. The cells were again suspended with sterile water and placed at 30° C. for 9 h to prepare resting cells, and during the preparation, the medium was prepared, poured to a plate and naturally dried. The cell suspension was adjusted to OD600 of 1.0 and subjected to 10-fold serial dilution, and 4 μL of the suspension at each dilution was dropped on the plate, cultured at 30° C. for 1-3 days and photographed to observe the colony growth. The control strain was tested in the same way for the vanillin resistance.

wild-type BY4741 strain = assay: Shake-flask fermentation under vanillin stress (OD600 growth); assay type: cell-based, Saccharomyces cerevisiae; details: wild-type BY4741, SC medium containing 6 mmol/L of vanillin, 30° C., 200 rpm
Procedure: as §1, §2
Similarly, the specific consumption rate of vanillin in the wild-type BY4741 strain was calculated to be 0.035 g g^−1 h^−1 according to the above method (FIG. 4).

For COc1cc(C=O)ccc1O [vanillin], the “maximum specific growth rate” value (sng1Δ mutant [1]; sng1Δ mutant, SC medium containing 6 mmol/L of vanillin, aerobic, shaking, 30° C., 200 rpm) is given as 0.225 h⁻¹, the “improvement of maximum specific growth rate of sng1Δ mutant compared to the control strain” value (sng1Δ mutant [1]; under vanillin stress (6 mmol/L), sng1Δ mutant vs BY4741) is given as 70% and the “delay period (lag) of growth” value (Saccharomyces cerevisiae) is given as “about 24 hours”. The “growth status on plate under vanillin stress” value (sng1Δ mutant [2]) was “superior growth status to the control strain” and the “maximum specific growth rate” value (wild-type BY4741 strain) was 0.132 h⁻¹.
